Experimental data taken from publication PMC5291759 (Bioorganic & medicinal chemistry, 2016).
“Also recorded” adds a separate entry of the source. Where two headings read alike, the source gives them in different places.

Key:
Lmna^H222P/H222P mice [1] = conditions: cited from earlier work
Lmna^H222P/H222P mice [2] = assay type: in vivo; conditions: 6 weeks
Lmna^H222P/H222P mice [3] = experiment: Serum creatine phosphokinase activity; assay type: in vivo
HT-29 cells = experiment: Anti-proliferative activity on HT-29 cells; assay type: cell-based; conditions: HT-29 anti-proliferative IC50
Lmna^H222P/H222P mice [4] = experiment: Forelimb grip fatigue index; assay type: in vivo; conditions: 6 mg/kg/day
Lmna^H222P/H222P mice [5] = assay type: in vivo; conditions: for Amylase (serum): 6 weeks, mean ± standard error, n = 10
ERK1/2 phosphorylation = experiment: Phosphorylated ERK1/2 relative to total ERK1/2 in tissues of treated mice; assay type: in vivo, Lmna^H222P/H222P mice; conditions: six weeks
Lmna^H222P/H222P mice [6] = experiment: Quantitative real-time RT-PCR of Nppa and Myl7 mRNA in hearts; assay type: in vivo
[7] = system: ERK1/2 phosphorylation in HEK-293 cells; experiment: Phosphorylated ERK1/2 immunoblot in cultured HEK-293 cells; assay type: cell-based; conditions: 1 µM to 0.001 µM, 24 h
Lmna^H222P/H222P mice [8] = experiment: Cardiac fibrosis score; assay type: in vivo
Lmna^H222P/H222P mice [9] = experiment: Histology of quadriceps muscle; assay type: in vivo; conditions: placebo 3 of 6

In the case of `Cn1cnc2c(F)c(Nc3ccc(Br)cc3Cl)c(C(=O)NOCCO)cc21` [selumetinib], the “effect on left ventricular and skeletal muscle function and survival” value (Lmna^H222P/H222P mice [1]) is listed as “beneficial effect on left ventricular and skeletal muscle function and prolongs survivial”.

For `O=S1(=O)Nc2c(cc(F)c(F)c2Nc2ccc(I)cc2F)OCC(O)C(O)CC12CC2` (stereo not drawn) [compound 8], the “Kidney histology, individual sample” value (Lmna^H222P/H222P mice [2]; 3 mg/kg/day) was “Normal”, the “Liver histology, individual sample” value (Lmna^H222P/H222P mice [2]; 3 mg/kg/day) was “Normal; also recorded: Slightly greater vacuolation in some zones; similar to 7606 but milder; could be preparation artifact” and the “Spleen histology, individual sample” value (Lmna^H222P/H222P mice [2]; 3 mg/kg/day) was “Mildly increased number of hemosiderin-laden macrophages suggestive of old hemorrhage Somewhere; also recorded: Normal (hemosiderin-laden macrophages present but at approximately normal levels)”. For the same compound, the “Kidney histology, individual sample” value (Lmna^H222P/H222P mice [2]; 6 mg/kg/day) was “Some lymphocytic inflammation around the renal pelvis (around the ureter) and occasional medium-sized arteries; more inflammation than 7623 and 7622; also recorded: Mostly normal but some mild lymphocytic inflammation around small arteries with occasional hemosiderin-laden macrophages”, the “Liver histology, individual sample” value (Lmna^H222P/H222P mice [2]; 6 mg/kg/day) was “Occasional hemosiderin laden macrophages. Some portal triads have mild lymphocytic inflammation; significance uncertain; also recorded: Normal; also recorded: Some intracellular vacuolation in some zones; similar to 7612; could be preparation artifact” and the “Spleen histology, individual sample” value (Lmna^H222P/H222P mice [2]; 6 mg/kg/day) was “Area of necrosis consistent with splenic infarct; moderately increased number of hemosiderin-laden macrophages suggestive of hemorrhage old somewhere; also recorded: Normal”. The “liver, kidney or spleen histopathology, overall” value (Lmna^H222P/H222P mice [2]; 3 or 6 mg/kg/day) was “no consistent or specific abnormalities in liver, kidney or spleen histopathology”, the “serum creatine phosphokinase activity compared to placebo” value (Lmna^H222P/H222P mice [3]; 3 mg/kg/day) was “but not 3 mg/kg/day of 8 significantly reduced” and the “serum creatine phosphokinase activity compared to placebo” value (Lmna^H222P/H222P mice [3]; 6 mg/kg/day) was “significantly reduced”. The “potency of fast moving isomer compared to the slow moving one” value (HT-29 cells) was “approximately 25 fold”, the “forelimb grip fatigue index compared to placebo” value (Lmna^H222P/H222P mice [4]) was “significantly reduced” and the “Amylase (serum)” value (Lmna^H222P/H222P mice [5]; 3 mg/kg/day) was 1,372 ± 282.9 U/L. The “Amylase (serum)” value (Lmna^H222P/H222P mice [5]; 6 mg/kg/day) was 1,086 ± 40.18 U/L, the “liver, kidney or pancreatic toxicity by serum chemistry” value (Lmna^H222P/H222P mice [5]; 6 weeks of treatment at a dose up to 6 mg/kg/day) was “did not produce significant liver, kidney or pancreatic toxicity” and the “phosphorylated ERK1/2 relative to total ERK1/2 in heart” value (ERK1/2 phosphorylation; 3 mg/kg/day oral gavage) was “significant decreases”. The “phosphorylated ERK1/2 relative to total ERK1/2 in liver” value (ERK1/2 phosphorylation; 3 mg/kg/day oral gavage) was “significant decreases”, the “phosphorylated ERK1/2 relative to total ERK1/2 in quadriceps muscle” value (ERK1/2 phosphorylation; 3 mg/kg/day oral gavage) was “only the higher dose produced a significant decrease” and the “phosphorylated ERK1/2 relative to total ERK1/2 in heart” value (ERK1/2 phosphorylation; 6 mg/kg/day oral gavage) was “significant decreases”. The “phosphorylated ERK1/2 relative to total ERK1/2 in liver” value (ERK1/2 phosphorylation; 6 mg/kg/day oral gavage) was “significant decreases”, the “phosphorylated ERK1/2 relative to total ERK1/2 in quadriceps muscle” value (ERK1/2 phosphorylation; 6 mg/kg/day oral gavage) was “significant decrease” and the “cardiac Nppa mRNA compared to placebo” value (Lmna^H222P/H222P mice [6]; 3 mg/kg/day) was “significantly reduced”. For the same compound, the “cardiac Myl7 mRNA compared to placebo” value (Lmna^H222P/H222P mice [6]; 6 mg/kg/day) was “significantly decreased”, the “cardiac Nppa mRNA compared to placebo” value (Lmna^H222P/H222P mice [6]; 6 mg/kg/day) was “significantly reduced” and the ERK1/2 phosphorylation [7] was “essentially abolished ERK1/2 phosphorylation”. The “cardiac fibrosis score (grade 0-4) compared to placebo” value (Lmna^H222P/H222P mice [8]; 3 mg/kg/day) was “statistically significant decreases in fibrosis”, the “cardiac fibrosis score (grade 0-4) compared to placebo” value (Lmna^H222P/H222P mice [8]; 6 mg/kg/day) was “statistically significant decreases in fibrosis” and the “quadriceps samples with internally nucleated fibers” value (Lmna^H222P/H222P mice [9]; 3 mg/kg/day) was 1 of 5. The “quadriceps samples with internally nucleated fibers” value (Lmna^H222P/H222P mice [9]; 6 mg/kg/day) was 0 of 5.

For `COc1cccc(-c2cc(=O)c3ccccc3o2)c1N` [PD98059], the “effect on left ventricular and skeletal muscle function and survival” value (Lmna^H222P/H222P mice [1]) is listed as “beneficial effect on left ventricular and skeletal muscle function and prolongs survivial”.
